One test deals with hsst2 (Homo sapiens, UniProt P30874). As to the kind of experiment: in vitro binding assay, hsst2.
In another test the target is hsst4 (Homo sapiens, UniProt P31391). Put plainly: in vitro binding assay, hsst4.
The target of the next test is hsst1 (Homo sapiens, UniProt P30872). As to the kind of experiment: in vitro binding assay, hsst1.
A further test addresses hsst3 (Homo sapiens, UniProt P32745). Put plainly: in vitro binding assay, hsst3.
In another test the target is hsst5 (Homo sapiens, UniProt P35346). Put plainly: in vitro binding assay, hsst5.

Bridge positions count the residues as written; N and C are the ends. Square brackets hold non-standard residues; d marks the D form. Peptide text beside a SMILES is read from it. Phe(4-Cl) = N[C@@H](Cc1ccc(Cl)cc1)C(=O)O; 2Nal = N[C@@H](Cc1ccc2ccccc2c1)C(=O)O; 4Pal = N[C@@H](Cc1ccncc1)C(=O)O; NMeK = CN[C@@H](CCCCN)C(=O)O

Chain of hsst4 (P31391 whole entry): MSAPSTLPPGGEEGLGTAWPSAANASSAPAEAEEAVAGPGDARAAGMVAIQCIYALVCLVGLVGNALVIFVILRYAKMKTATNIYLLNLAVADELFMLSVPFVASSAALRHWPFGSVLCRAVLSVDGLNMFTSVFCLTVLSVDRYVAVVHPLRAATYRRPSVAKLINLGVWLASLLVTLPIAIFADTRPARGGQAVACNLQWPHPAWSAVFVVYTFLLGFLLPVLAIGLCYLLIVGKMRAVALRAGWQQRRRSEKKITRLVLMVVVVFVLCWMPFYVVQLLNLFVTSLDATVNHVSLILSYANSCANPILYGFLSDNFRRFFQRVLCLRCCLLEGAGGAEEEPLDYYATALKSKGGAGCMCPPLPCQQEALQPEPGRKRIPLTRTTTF
Chain of hsst5 (P35346 whole entry): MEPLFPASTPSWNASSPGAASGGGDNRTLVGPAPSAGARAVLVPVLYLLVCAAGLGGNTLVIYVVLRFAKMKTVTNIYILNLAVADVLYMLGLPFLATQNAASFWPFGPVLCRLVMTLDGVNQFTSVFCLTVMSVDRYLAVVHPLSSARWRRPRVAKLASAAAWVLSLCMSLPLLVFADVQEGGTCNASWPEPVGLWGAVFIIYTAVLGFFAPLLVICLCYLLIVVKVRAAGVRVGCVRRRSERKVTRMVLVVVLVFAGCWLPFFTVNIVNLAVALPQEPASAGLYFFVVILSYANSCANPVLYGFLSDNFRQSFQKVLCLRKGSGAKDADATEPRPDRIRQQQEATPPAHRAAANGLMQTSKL
Chain of hsst2 (P30874 whole entry): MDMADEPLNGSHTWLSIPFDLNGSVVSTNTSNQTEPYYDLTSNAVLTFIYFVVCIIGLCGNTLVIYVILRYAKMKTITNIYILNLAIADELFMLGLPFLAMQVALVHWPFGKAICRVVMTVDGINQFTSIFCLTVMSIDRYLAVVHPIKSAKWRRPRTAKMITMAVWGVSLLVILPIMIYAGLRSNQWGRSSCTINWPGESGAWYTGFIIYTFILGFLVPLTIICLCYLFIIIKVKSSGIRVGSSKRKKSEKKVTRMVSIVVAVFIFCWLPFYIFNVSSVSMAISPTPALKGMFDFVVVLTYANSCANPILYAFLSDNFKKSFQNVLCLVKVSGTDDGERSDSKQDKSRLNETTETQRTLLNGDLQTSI
Chain of hsst1 (P30872 whole entry): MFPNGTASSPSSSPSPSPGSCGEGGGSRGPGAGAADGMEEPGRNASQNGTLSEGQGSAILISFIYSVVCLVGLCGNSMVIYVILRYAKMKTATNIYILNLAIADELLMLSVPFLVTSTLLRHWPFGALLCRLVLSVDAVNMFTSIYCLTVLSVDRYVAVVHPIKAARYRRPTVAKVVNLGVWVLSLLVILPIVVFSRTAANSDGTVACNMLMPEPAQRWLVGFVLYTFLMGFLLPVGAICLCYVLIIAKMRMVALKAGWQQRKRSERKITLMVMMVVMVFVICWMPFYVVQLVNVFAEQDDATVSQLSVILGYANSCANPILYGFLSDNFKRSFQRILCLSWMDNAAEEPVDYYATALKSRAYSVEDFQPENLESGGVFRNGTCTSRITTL
Chain of hsst3 (P32745 whole entry): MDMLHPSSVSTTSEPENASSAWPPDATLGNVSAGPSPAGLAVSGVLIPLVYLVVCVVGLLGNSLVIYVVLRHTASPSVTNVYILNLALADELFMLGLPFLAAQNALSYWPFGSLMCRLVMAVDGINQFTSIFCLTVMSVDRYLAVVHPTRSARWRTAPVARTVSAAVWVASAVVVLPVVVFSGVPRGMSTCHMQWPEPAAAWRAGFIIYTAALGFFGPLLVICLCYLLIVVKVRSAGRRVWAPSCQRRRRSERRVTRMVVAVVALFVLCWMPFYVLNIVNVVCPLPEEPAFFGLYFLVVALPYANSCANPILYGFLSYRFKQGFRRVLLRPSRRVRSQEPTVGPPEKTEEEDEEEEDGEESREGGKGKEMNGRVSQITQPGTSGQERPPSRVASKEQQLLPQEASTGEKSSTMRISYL

One may read the Ki as the equilibrium dissociation constant of an inhibitor or competing ligand from its target. Regarding `C[C@@H](O)[C@@H]1NC(=O)[C@H](CCCCN)NC(=O)[C@@H](Cc2c[nH]c3ccccc23)NC(=O)[C@H](Cc2ccncc2)NC(=O)[C@H](NC(=O)[C@@H](N)Cc2ccc(Cl)cc2)CSSC[C@@H](C(=O)N[C@@H](Cc2ccc3ccccc3c2)C(N)=O)NC1=O` [Compound "A", Cpa-[D-Cys-4-Pal-D-Trp-Lys-Thr-Cys]-2-Nal-NH2], the Ki at hsst2 was determined as 6.4 nM; on hsst4, 711 nM; at hsst1, 2760 nM; at hsst3 it was 44 nM; at hsst5 it was 86 nM.
Taken in the same sequence, the figures for `C[C@@H](O)[C@@H]1NC(=O)[C@H](CCCCN)N(C)C(=O)[C@@H](Cc2c[nH]c3ccccc23)NC(=O)[C@H](Cc2ccncc2)NC(=O)[C@H](NC(=O)[C@@H](N)Cc2ccc(Cl)cc2)CSSC[C@@H](C(=O)N[C@@H](Cc2ccc3ccccc3c2)C(N)=O)NC1=O` [Compound "B", Cpa-[D-Cys-4-Pal-D-Trp-N-Me-Lys-Thr-Cys]-2-Nal-NH2] (H-[Phe(4-Cl)][dC][4Pal][dW][NMeK]TC[2Nal]-NH2; disulfide 2-7) were 17.1 nM, 1000 nM, 1000 nM, 66 nM and 6 nM.

The values are drawn from EP2835136A1, “Somatostatin Receptor Modulator for the treatment of infertility” (PregLem S.A., priority 2013, dated 2015).
